This assay has as its target Ca2+/CaM (Homo sapiens, UniProt P0DP23). The format is binding.

No end group written: not given here.

Take HFGKpTGSSGPLQ [pSFWT]: the “KD from titration to 15N-labeled Ca2+/CaM (result in words)” value (nanodisc free solution, same conditions as the SFWT peptide) was “did not reach saturation”. The term Kd denotes the concentration at which binding is half-saturated. Low readings indicate higher affinity, high ones lower affinity. For the substance HFGKTGAASDQR [LFRA], binding was characterised by a dissociation constant (Kd) of 750 µM. The substance HAGKTGSSGPLQ [SFFA] gave a Kd of 0.27 µM.
